Assay results as given in patent publication US20100317671A1, “XANTHINE-BASED CYCLIC GMP-ENHANCING RHO-KINASE INHIBITOR INHIBITS PHYSIOLOGICAL ACTIVITIES OF LUNG EPITHELIAL CELL LINE” (KAOHSIUNG MEDICAL UNIVERSITY, priority 2008, published 2010).

Tests used:
Format in all cases: in vivo
TGF-β = TGF-β expression by western blotting, bleomycin mice; conditions: lung fibrotic stage
Description: (§1) At day 28, it is observed that expression of eNOS is decreased, the expressions of TGF-β, Smad 3 and HMGB1 are increased and there is significant collagen accumulation in the tissue sections.
The TGF-β (FIG. 12), CTGF (FIG. 13) and Smad3/p-Smad3 (FIG. 14) protein expressions in the lung tissue are analyzed by western blotting.
(§2) (1) The mice lung is immersed in the tissue lysis buffer and homogenized by an ultrasound sonicator on ice.
(§3) (2) The lysate is centrifuged at 13,000 g under 4° C. for 30 mins. The supernatant is collected and the protein concentration measurement adopts the“Bio-Rad DC protein assay”. After diluting the protein as specific concentrations, the sample buffer being one fourth of the sample volume is added thereinto for heating at 100° C. for 5 mins, and the sample is loaded into each wells of SDS-PAGE gel in turn. The running buffer is added into the electrophoresis tank for electrophoresis at 100 V, the voltage is adjusted as 200 V when the protein runs to the lower gel, and the electrophoresis is stopped when the SDS-PAGE dye enters the SDS-PAGE.
(3) The PVDF membrane is rinsed ith transfer buffer for use, and the protein on the SDS-PAGE is transferred to the PVDF membrane. The SDS-PAGE layer covering on the PVDF membrane is placed in a protein transfer tank immersed with the transfer buffer with the current set at 100V. […]

MMP-2 [1] = assay: Gelatin zymography of lung lavage, bleomycin mice; conditions: for MMP-2 expression in lung lavage (zymography): day 7 or day 28, p<0.05; for Expression of MMP2 in lung lavage: lung inflammatory stage
Description: (§4) The activities of MMP-2 (FIGS. 7A and 8A) and MMP-9 (FIGS. 7B and 8B) in the lung lavage of mice on day 7 (FIG. 7) and day 28 (FIG. 8) are analyzed by zymography. The expression levels are minor in the normal control group. […] The expressions of MMP-2 and MMP-9 on day 7 are higher than that on day 28. […] It is seen that KMUPs have the effect of mitigating the inflammation.
(§5) The MMPs in the lung lavaga are measured by zymography. It is known that all of the MMP-1, MMP-2, MMP-3, MMP-7 and MMP-9 can degrade the gelatin, especially the MMP-2 and MMP-9. The activity of collagenase can be analyzed by SDS-PAGE gel adding by gelatin. After the collected bronchoalveolar lavage fluid (BALF) is electrophoreted, the SDS is removed with 2.5% (v/v) Triton X-100 and the activity of collagenase is recovered to degrade the gelatin. After reacting for a period of time, the commassie blue is utilized for staining and destaining so that a transparent band in the area having the collagenase activity can be seen owing to the gelatin is degraded.
(§6) The BALF is collected and the concentration thereof is measured by Bio-Rad DC protein assay. The absorption of BALF at 595 nm wavelength is measured by an ELISA reader with a BSA standard, and the concentration of the sample is measured according to the standard curve of this absorption value.
(§7) The sample is mixed with non sample buffer. After reacting under temperature for 10 mins, the separating gel containing 0.1% gelatin is utilized for electrophoresis analysis under low temperature. While the electrophoresis is finished, the gel is immersed in 2.5% Triton X-100 buffer to react under temperature for half hour. The 2.5% Triton X-100 buffer is exchanged to react under temperature for additional half hour. The gel is immersed in the developing buffer at 37° C. for 24 hrs, stained with staining buffer for 1 hr and destained with the destaining buffer, and the transparent band can be seen.

MMP-9 [2] = assay: Gelatin zymography of lung lavage, bleomycin mice; conditions: for MMP-9 expression in lung lavage (zymography): day 7 or day 28, p<0.05; for Expression of MMP-9 in lung lavage: lung inflammatory stage
Description: as §4, §5, §6, §7

eNOS = eNOS expression by western blotting, bleomycin mice; conditions: lung fibrotic stage
Description: as §1
The eNOS (FIG. 15), p-eNOS (FIG. 16) and iNOS (FIG. 17) protein expressions in the lung tissue are analyzed by western blotting. […] The KMUPs administration effectively increases the eNOS expression.
as §2, §3
(3) The PVDF membrane is rinsed ith transfer buffer for use, and the protein on the SDS-PAGE is transferred to the PVDF membrane. […]

[3] = Body weight change, bleomycin-induced IPF mice
Description: The six-week old mice are used in this experiment and divided into ten groups as follows. […] The six-week old male C57B1/6 mice are purchased from the National Laboratory Animal Center. […] After being […] pentobarbital in the dose of 0.52 mg/10 g, the mice is kept upright and positioned an otoscope into the larynx for looking into the trachea clearly. The bleomycin is loaded by a loading tip for intratracheal administration.

MMP-2 [4] = assay: Western blotting of lung tissue, bleomycin mice; conditions: increased by bleomycin; p<0.01
Description: (§8) The lung tissue is analyzed by western blotting, and the MMP-2 and MMP-9 protein expressions are shown in both of the FIGS. 9 and 10. In the lung tissue, the MMP-2 expression is more significant than MMP-9. KMUP-1 and KMUP-5 may mitigate the expressions of MMP-2 and MMP-9 increased by administrating the bleomycin (p<0.01).
as §2, §3
(§9) (3) The PVDF membrane is rinsed ith transfer buffer for use, and the protein on the SDS-PAGE is transferred to the PVDF membrane. The SDS-PAGE layer covering on the PVDF membrane is placed in a protein transfer tank immersed with the transfer buffer with the current set at 100V. After 80 mins, the transfer is completed and then the PVDF membrane is taken out.
(§10) (4) after cutting the band having an appropriate molecular weight on the PVDF membrane, an appropriate amount of the blocking buffer is added to for blocking under room temperature to remove the non-specific binding. Then, evenly covering the diluted primary antibody on the PVDF membrane to react under room temperature for 2 hrs, and the excessive antibodies are removed by T-TBS. Further, evenly covering the diluted secondary antibody to react under room temperature for 1 hr and finally washing the excessive antibodies with T-TBS. The enhanced chemiluminescence (ECL) agent is added for reacting for 1-90 secs. After exposing to a x-ray film, the reaction is completed.

MMP-9 [5] = assay: Western blotting of lung tissue, bleomycin mice; conditions: increased by bleomycin; p<0.01
Description: as §8, §2, §3, §9, §10

iNOS = assay: Western blotting of lung tissue, OVA-sensitized and -challenged mice; conditions: nebulization, 28-day experiment
ICAM-1 = assay: as above
Source text: (§11) Inhaled KMUP-1 can be absorbed into airway and blood flow to increase eNOS and down-regulate Rho-kinase expression by a cGMP-dependent pathway, protecting OVA-sensitized and challenged ICAM-1/VCAM-1 expression-associated cellular adhesion and migration activity of neutrophils.

VCAM-1 = assay: as above
Source text: as §11

[6] = Day 7, dose 2.5 mg/kg (Combination: 2.5 mg/kg each drug)
[7] = Day 14, dose 2.5 mg/kg (Combination: 2.5 mg/kg each drug)
[8] = Day 28, dose 2.5 mg/kg (Combination: 2.5 mg/kg each drug)
[9] = Day −3, dose 2.5 mg/kg (Combination: 2.5 mg/kg each drug)

| SMILES | Expression of TGF-β (TGF-β) | MMP-2 expression in lung lavage (zymography) (MMP-2 [1]) | Expression of MMP2 in lung lavage (MMP-2 [1]) | MMP-9 expression in lung lavage (zymography) (MMP-9 [2]) | Expression of MMP-9 in lung lavage (MMP-9 [2]) | Expression of eNOS (eNOS) | Body weight [3, 6] [g] | Body weight [3, 7] [g] | Body weight [3, 8] [g] | Body weight [3, 9] [g] | MMP-2 protein expression in lung tissue (western blotting) (MMP-2 [4]) | MMP-9 protein expression in lung tissue (western blotting) (MMP-9 [5]) | further results |
| --- | --- | --- | --- | --- | --- | --- | --- | --- | --- | --- | --- | --- | --- |
| CCC(C)(C)C(=O)O[C@H]1C[C@@H](C)C=C2C=C[C@H](C)[C@H](CC[C@@H](O)C[C@@H](O)CC(=O)O)[C@H]21.Cn1c(=O)c2c(ncn2CCN2CCN(c3ccccc3Cl)CC2)n(C)c1=O [KMUP-5] | inhibit | significantly decrease | efficiently decrease | significantly decrease | efficiently decrease | increase | 22.25 ± 2.36 | 23.15 ± 2.51 | 23.03 ± 2.74 | 23.87 ± 2.04 | mitigate | mitigate | Marasmus (body weight loss) ([3]; bleomycin mice): less significant |
| Cn1c(=O)c2c(ncn2CCN2CCN(c3ccccc3Cl)CC2)n(C)c1=O [KMUP-1, 7-[2-[4-(2-chlorobenzene)piperazinyl]ethyl]-1,3-dimethylxanthine] | inhibit | significantly decrease | efficiently decrease | significantly decrease | efficiently decrease | increase | 17.84 ± 1.72 | 19.11 ± 3.4 | 20.43 ± 2.8 | 23.06 ± 1.36 | mitigate | mitigate | iNOS expression increased by OVA sensitization (iNOS): significantly reduced; ICAM-1 expression (ICAM-1): suppressing; VCAM-1 expression (VCAM-1): suppressing; Body weight ([3]; Day 7, dose 1 mg/kg): 19.80 ± 3.13 g; Body weight ([3]; Day 7, dose 5 mg/kg): 18.33 ± 1.3 g; Body weight ([3]; Day 14, dose 1 mg/kg): 20.48 ± 5.68 g; Body weight ([3]; Day 14, dose 5 mg/kg): 19.83 ± 2.3 g; Body weight ([3]; Day 28, dose 1 mg/kg): 21.90 ± 5.27 g; Body weight ([3]; Day 28, dose 5 mg/kg): 21.13 ± 2.5 g; Body weight ([3]; Day −3, dose 1 mg/kg): 24.12 ± 1.96 g; Body weight ([3]; Day −3, dose 5 mg/kg): 23.13 ± 1.42 g |
